According to the kinase profiling compilation of Christmann-Franck et al. (2016):

Experiments:
Experiment in all cases: radiometric filter-binding kinase assay
[1] = target: PAK4 (human) (UniProt O96013)
[2] = tested on: LCK (mouse); details: accession and sequence are those of the human protein
[3] = target: MAP3K5 (human) (UniProt Q99683); details: compound 10.0 µM
[4] = tested on: OXSR1 (human), O95747 [T185E]
[5] = target: TTK (human) (UniProt P33981)
[6] = target: PRKACA (human) (UniProt P17612)
[7] = target: IKBKB (human) (UniProt O14920); details: compound 1.0 µM
[8] = target: MAPKAPK2 (human) (UniProt P49137)
MAPKAPK2 (human), sequence (P49137 whole entry, looked up): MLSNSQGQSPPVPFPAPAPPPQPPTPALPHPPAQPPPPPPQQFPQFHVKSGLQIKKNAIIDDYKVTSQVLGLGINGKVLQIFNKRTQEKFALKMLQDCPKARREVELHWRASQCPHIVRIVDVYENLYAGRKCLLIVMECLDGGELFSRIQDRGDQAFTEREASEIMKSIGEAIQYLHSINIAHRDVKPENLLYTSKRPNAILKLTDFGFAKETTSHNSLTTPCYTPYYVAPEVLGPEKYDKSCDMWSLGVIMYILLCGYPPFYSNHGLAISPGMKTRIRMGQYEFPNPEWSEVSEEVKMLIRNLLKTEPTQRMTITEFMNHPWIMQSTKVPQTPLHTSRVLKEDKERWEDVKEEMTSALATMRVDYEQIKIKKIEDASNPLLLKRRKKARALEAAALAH

[9] = target: MAPK10 (human) (UniProt P53779)
MAPK10 (human), sequence (P53779 whole entry, looked up): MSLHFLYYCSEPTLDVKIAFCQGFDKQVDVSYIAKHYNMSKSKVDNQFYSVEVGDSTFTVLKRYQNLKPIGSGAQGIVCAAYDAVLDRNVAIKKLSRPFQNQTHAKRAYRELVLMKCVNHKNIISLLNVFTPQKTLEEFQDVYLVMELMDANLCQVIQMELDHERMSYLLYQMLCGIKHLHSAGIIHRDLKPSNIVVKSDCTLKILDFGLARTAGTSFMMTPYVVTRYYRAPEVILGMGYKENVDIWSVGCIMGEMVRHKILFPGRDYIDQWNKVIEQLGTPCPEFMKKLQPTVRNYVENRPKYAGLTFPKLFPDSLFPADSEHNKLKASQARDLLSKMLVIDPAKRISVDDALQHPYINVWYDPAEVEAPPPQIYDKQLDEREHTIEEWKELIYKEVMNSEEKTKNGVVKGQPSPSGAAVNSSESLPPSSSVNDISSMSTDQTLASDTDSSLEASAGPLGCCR

[10] = target: TESK1 (human) (UniProt Q15569)
[11] = target: CLK2 (human) (UniProt P49760)
CLK2 (human), sequence (P49760 whole entry, looked up): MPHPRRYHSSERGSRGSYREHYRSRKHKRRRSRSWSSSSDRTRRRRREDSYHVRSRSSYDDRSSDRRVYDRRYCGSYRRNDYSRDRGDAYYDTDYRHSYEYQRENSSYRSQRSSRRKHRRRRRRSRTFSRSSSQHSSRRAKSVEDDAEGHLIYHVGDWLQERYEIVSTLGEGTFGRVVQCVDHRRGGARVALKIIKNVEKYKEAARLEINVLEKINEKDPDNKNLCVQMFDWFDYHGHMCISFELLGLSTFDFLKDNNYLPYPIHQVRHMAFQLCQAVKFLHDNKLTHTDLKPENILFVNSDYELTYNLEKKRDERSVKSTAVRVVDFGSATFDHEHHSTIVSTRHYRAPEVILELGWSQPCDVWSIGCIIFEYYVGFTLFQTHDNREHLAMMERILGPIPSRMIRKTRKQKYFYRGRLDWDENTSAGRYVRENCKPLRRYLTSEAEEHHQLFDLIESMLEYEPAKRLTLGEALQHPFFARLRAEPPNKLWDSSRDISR

[12] = target: MARK4 (human) (UniProt Q96L34)
[13] = target: MAP4K5 (human) (UniProt Q9Y4K4)
[14] = target: PAK6 (human) (UniProt Q9NQU5)
[15] = target: ULK1 (human) (UniProt O75385)
[16] = target: MAPKAPK5 (human) (UniProt Q8IW41)
[17] = target: STK24 (human) (UniProt Q9Y6E0); details: compound 1.0 µM
[18] = target: RPS6KA5 KD1 KD2 (human) (UniProt O75582)
[19] = target: PIM1 (human) (UniProt P11309)
PIM1 (human), sequence (P11309 whole entry, looked up): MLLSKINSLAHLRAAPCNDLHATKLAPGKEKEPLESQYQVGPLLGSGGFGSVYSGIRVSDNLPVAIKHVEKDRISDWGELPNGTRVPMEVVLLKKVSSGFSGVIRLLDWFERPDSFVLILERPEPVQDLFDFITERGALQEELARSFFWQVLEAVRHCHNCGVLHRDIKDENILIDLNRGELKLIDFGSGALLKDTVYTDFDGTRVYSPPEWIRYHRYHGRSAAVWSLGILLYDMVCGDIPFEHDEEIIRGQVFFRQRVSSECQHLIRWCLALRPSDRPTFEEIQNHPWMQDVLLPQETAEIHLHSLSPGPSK

[20] = target: WNK1 (human) (UniProt Q9H4A3)
WNK1 (human), sequence (Q9H4A3 whole entry, looked up): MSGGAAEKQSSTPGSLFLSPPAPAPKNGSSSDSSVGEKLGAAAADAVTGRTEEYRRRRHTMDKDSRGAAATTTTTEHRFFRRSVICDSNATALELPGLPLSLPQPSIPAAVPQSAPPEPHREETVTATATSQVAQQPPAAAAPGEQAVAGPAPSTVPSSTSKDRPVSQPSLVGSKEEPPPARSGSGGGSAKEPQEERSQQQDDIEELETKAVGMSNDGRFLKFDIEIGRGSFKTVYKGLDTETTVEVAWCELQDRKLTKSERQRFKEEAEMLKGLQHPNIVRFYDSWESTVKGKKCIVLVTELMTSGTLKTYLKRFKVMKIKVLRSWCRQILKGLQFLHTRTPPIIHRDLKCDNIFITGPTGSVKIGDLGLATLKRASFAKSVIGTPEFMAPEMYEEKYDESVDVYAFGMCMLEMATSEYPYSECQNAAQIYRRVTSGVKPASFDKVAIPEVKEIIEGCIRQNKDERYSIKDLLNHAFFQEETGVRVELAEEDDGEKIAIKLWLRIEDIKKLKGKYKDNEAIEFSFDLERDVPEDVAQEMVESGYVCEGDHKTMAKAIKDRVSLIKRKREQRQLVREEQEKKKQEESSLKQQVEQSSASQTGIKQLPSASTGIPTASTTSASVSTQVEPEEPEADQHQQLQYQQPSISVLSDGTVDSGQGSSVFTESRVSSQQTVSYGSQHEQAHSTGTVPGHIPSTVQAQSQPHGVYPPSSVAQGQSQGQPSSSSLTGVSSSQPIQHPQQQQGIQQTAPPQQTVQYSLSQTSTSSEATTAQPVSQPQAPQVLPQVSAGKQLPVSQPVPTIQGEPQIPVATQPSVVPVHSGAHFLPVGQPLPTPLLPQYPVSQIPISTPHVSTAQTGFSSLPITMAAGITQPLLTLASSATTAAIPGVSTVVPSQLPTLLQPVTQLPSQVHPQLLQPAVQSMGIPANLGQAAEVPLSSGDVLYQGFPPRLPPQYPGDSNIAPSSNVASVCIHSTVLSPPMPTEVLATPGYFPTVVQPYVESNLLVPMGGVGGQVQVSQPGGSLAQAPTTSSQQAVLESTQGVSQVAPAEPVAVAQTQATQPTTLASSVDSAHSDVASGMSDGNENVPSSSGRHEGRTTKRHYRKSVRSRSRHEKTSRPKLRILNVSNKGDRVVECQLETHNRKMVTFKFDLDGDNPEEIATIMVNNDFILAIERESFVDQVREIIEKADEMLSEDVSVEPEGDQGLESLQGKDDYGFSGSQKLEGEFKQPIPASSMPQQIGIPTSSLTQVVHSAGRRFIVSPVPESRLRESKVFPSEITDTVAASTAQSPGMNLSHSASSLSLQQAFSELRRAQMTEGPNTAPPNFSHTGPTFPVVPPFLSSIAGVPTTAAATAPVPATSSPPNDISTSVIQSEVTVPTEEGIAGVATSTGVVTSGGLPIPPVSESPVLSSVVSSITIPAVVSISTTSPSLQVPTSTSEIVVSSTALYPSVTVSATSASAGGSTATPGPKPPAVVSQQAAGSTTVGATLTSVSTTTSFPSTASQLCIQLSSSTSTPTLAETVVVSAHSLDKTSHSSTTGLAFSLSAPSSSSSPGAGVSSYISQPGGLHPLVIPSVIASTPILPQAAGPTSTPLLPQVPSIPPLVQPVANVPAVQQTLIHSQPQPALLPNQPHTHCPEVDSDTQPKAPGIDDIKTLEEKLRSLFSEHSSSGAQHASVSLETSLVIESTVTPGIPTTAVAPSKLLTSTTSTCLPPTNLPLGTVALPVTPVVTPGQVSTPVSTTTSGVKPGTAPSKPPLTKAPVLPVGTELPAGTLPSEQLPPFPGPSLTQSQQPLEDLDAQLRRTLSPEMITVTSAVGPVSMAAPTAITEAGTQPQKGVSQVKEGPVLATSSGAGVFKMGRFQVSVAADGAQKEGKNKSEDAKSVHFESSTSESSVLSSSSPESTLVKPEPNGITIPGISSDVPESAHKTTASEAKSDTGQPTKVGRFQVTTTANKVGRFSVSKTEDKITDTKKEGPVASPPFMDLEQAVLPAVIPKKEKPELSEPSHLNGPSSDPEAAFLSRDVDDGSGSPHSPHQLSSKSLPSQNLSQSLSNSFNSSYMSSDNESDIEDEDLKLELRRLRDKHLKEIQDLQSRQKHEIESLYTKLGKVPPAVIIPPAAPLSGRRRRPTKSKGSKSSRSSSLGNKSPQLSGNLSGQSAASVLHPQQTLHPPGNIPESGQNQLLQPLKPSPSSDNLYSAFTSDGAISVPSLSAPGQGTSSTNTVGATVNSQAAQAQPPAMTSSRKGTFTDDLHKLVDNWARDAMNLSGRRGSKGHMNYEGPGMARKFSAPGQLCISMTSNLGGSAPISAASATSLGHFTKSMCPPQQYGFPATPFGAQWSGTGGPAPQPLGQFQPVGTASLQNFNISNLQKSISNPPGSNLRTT

[21] = target: AURKA (human) (UniProt O14965)
[22] = target: BTK (human) (UniProt Q06187)
[23] = target: CSNK2A1 (human) (UniProt P68400)
[24] = target: DYRK2 (human) (UniProt Q92630)
[25] = target: MAP3K1 (human) (UniProt Q13233)
[26] = target: SIK2 (human) (UniProt Q9H0K1)
[27] = target: MAPK9 (human) (UniProt P45984)
MAPK9 (human), sequence (P45984 whole entry, looked up): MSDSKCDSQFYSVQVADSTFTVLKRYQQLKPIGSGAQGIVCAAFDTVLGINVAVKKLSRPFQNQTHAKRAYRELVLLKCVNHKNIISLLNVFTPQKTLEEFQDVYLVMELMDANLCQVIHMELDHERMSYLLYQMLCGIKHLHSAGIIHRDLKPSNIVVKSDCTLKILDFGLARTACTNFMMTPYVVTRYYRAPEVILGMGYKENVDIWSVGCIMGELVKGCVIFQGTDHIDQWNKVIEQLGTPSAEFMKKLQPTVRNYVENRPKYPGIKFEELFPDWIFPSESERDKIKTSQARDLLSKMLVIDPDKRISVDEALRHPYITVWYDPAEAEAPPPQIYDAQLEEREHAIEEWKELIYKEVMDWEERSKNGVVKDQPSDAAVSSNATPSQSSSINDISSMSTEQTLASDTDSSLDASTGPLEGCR

[28] = tested on: AKT2 (human), P31751 [S474D]
[29] = target: GSK3B (human) (UniProt P49841)

PAK4 (human), sequence (O96013 whole entry, looked up): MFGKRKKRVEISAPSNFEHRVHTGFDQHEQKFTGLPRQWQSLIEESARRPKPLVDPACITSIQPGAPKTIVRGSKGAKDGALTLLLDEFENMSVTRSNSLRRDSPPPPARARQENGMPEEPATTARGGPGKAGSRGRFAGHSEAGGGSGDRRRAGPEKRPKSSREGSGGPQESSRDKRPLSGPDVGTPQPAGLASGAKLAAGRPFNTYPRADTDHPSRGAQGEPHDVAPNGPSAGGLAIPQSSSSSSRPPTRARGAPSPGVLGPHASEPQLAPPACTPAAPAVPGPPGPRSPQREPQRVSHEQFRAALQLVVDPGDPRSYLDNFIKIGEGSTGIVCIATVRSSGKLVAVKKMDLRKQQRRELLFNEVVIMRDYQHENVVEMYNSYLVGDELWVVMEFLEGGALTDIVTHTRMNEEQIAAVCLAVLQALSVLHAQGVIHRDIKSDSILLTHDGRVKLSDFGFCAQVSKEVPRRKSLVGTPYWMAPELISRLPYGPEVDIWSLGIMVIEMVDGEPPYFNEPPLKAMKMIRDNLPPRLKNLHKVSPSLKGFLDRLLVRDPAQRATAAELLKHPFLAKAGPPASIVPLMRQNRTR

SMILES: CNc1nc(Nc2ccc(C(=O)N3CCOCC3)cc2OC)ncc1Cl
- residual activity ([1]; compound 1.0 µM): 87%
- residual activity ([1]; compound 10.0 µM): 84%
- residual activity ([2]; compound 1.0 µM): 92%
- residual activity ([2]; compound 10.0 µM): 95%
- residual activity [3]: 54%
- residual activity ([4]; compound 1.0 µM): 108%
- residual activity ([4]; compound 10.0 µM): 82%
- residual activity ([5]; compound 1.0 µM): 71%
- residual activity ([5]; compound 10.0 µM): 57%
- residual activity ([6]; compound 1.0 µM): 85%
- residual activity ([6]; compound 10.0 µM): 94%
- residual activity [7]: 82%
- residual activity ([8]; compound 1.0 µM): 88%
- residual activity ([8]; compound 10.0 µM): 102%
- residual activity ([9]; compound 1.0 µM): 60%
- residual activity ([9]; compound 10.0 µM): 29%
- residual activity ([10]; compound 1.0 µM): 90%
- residual activity ([10]; compound 10.0 µM): 83%
- residual activity ([11]; compound 1.0 µM): 91%
- residual activity ([11]; compound 10.0 µM): 76%
- residual activity ([12]; compound 1.0 µM): 82%
- residual activity ([12]; compound 10.0 µM): 72%
- residual activity ([13]; compound 1.0 µM): 83%
- residual activity ([13]; compound 10.0 µM): 82%
- residual activity ([14]; compound 1.0 µM): 90%
- residual activity ([14]; compound 10.0 µM): 98%
- residual activity ([15]; compound 1.0 µM): 62%
- residual activity ([15]; compound 10.0 µM): 85%
- residual activity ([16]; compound 1.0 µM): 91%
- residual activity ([16]; compound 10.0 µM): 44%
- residual activity [17]: 83%
- residual activity ([18]; compound 1.0 µM): 104%
- residual activity ([18]; compound 10.0 µM): 84%
- residual activity ([19]; compound 1.0 µM): 96%
- residual activity ([19]; compound 10.0 µM): 99%
- residual activity ([20]; compound 1.0 µM): 62%
- residual activity ([20]; compound 10.0 µM): 99%
- residual activity ([21]; compound 1.0 µM): 56%
- residual activity ([21]; compound 10.0 µM): 45%
- residual activity ([22]; compound 1.0 µM): 83%
- residual activity ([22]; compound 10.0 µM): 88%
- residual activity ([23]; compound 1.0 µM): 50%
- residual activity ([23]; compound 10.0 µM): 88%
- residual activity ([24]; compound 1.0 µM): 44%
- residual activity ([24]; compound 10.0 µM): 21%
- residual activity ([25]; compound 1.0 µM): 93%
- residual activity ([25]; compound 10.0 µM): 98%
- residual activity ([26]; compound 1.0 µM): 49%
- residual activity ([26]; compound 10.0 µM): 47%
- residual activity ([27]; compound 1.0 µM): 76%
- residual activity ([27]; compound 10.0 µM): 46%
- residual activity ([28]; compound 1.0 µM): 95%
- residual activity ([28]; compound 10.0 µM): 64%
- residual activity ([29]; compound 1.0 µM): 100%
- residual activity ([29]; compound 10.0 µM): 98%
